The values that follow come from patent publication US7058616B1, “Method and system for predicting resistance of a disease to a therapeutic agent using a neural network” (Virco Bvba, priority 2000, dated 2006).

For assay [1], the system named is HIV-1. Particulars: cited from earlier work.
Assay [2] deals with HIV-1. Nature of the assay: MT-4 cell viral cytopathic effect protection assay, phenotypic susceptibility of patient recombinant virus. The assay is classed as cell-based. Here is the method:
Phenotypic susceptibility was determined using a MT-4 cell viral cytopathic effect protection assay. See, e.g., Kashiwase et al., Chemotherapy 45(1):48–55 (1999), expressly incorporated herein by reference; Larder et al., Antimicrob. Agents Chemother. 43(8):1961–1967 (1999).

With `Nc1ccn([C@@H]2CS[C@H](CO)O2)c(=O)n1` [3TC], in assay [1], the “Effect of M184V mutation on 3TC susceptibility” value was “confers resistance”. Further, the “Effect of 333D/E mutation” value in assay [1] (reverses the M184V effect) is reported as “dual AZT/3TC resistance”. The “actual phenotype resistance level” value is “S/S (A fold resistance of less than or equal to 4 is considered to be “sensitive,”)” in assay [2] (Table 3 testing sample 1); “R/R (if the value is greater than 10, it is considered to be “resistant.”)” in assay [2] (Table 3 testing sample 2); “R/R (if the value is greater than 10, it is considered to be “resistant.”)” in assay [2] (Table 3 testing sample 3); “S/S (A fold resistance of less than or equal to 4 is considered to be “sensitive,”)” in assay [2] (Table 3 testing sample 4); “R/R (if the value is greater than 10, it is considered to be “resistant.”)” in assay [2] (Table 3 testing sample 5); “R (if the value is greater than 10, it is considered to be “resistant.”)” in assay [2] (Table 3 testing sample 6). The “actual phenotype resistance level” value in assay [2] (Table 3 testing sample 7) was “R/R (if the value is greater than 10, it is considered to be “resistant.”)”; in assay [2] (Table 3 testing sample 8), “R/R (if the value is greater than 10, it is considered to be “resistant.”)”; in assay [2] (Table 3 testing sample 9) it was “R/R (if the value is greater than 10, it is considered to be “resistant.”)”; in assay [2] (Table 3 testing sample 10) it was “S/S (A fold resistance of less than or equal to 4 is considered to be “sensitive,”)”.
